Experiment [1] concerns BdorOBP2. The following applies: ref 39; cited from earlier work.
Experiment [2] concerns EpOR1/Orco. The following applies: cited from earlier work.
Experiment [3] has as its system BmOr1/Orco. Conditions: cited from earlier work.
Experiment [4] relates to BmOR1/Orco. Conditions: cited from earlier work.
In experiment [5] the test system is BmOR1/Ocro. Conditions: ref 13; cited from earlier work.
Experiment [6] deals with HVOR13/Orco. Conditions: ref 31; cited from earlier work.
In experiment [7] the test system is PxOR1/Orco. Conditions: cited from earlier work.
Experiment [8] concerns the target DmOr22a/Orco (Drosophila melanogaster, UniProt P81909). Conditions: cited from earlier work.
Experiment [9] has as its system AgOr10/Orco. Conditions: ref 33; cited from earlier work.
The target of experiment [10] is T1, AgOR2/Orco (Anopheles gambiae, UniProt Q8WTE6).
T1 construct: host or cells: Xenopus oocytes
The following applies: ref 33; cited from earlier work.

Experiment [11] deals with MsiOR1/Orco. The following applies: cited from earlier work.
For experiment [12], the system named is BmOr19/Orco. Conditions: cited from earlier work.
The test system of experiment [13] is HVOR6/Orco. The following applies: ref 31; cited from earlier work.
For experiment [14], the target named is T2, AgOR1/Orco (Anopheles gambiae, UniProt Q8WTE7).
T2 construct: host or cells: Xenopus oocytes
The following applies: ref 33; cited from earlier work.

Experiment [15] concerns SexiOR16/Orco. Conditions: ref 26; cited from earlier work.
The test system of experiment [16] is EpOR3/Orco. Conditions: estimated visually from graph; cited from earlier work.
Experiment [17] has as its system EpOR3/Orco. The following applies: ref 19; cited from earlier work.
Experiment [18] concerns the target DOr85b/Orco (Drosophila melanogaster, UniProt Q9VHQ7). Conditions: cited from earlier work.
Experiment [19] deals with OBP proteins. The following applies: ref 41; cited from earlier work.
Experiment [20] concerns OscaOR1/Orco. The following applies: cited from earlier work.
Experiment [21] has as its system AgOR8/Orco. Conditions: ref 33; cited from earlier work.
Experiment [22] relates to AgOr65/Orco. The following applies: given as Log, cited from earlier work.
Experiment [23] has as its system AgOr65/Orco. The following applies: ref 33; cited from earlier work.
The target of experiment [24] is T3, OR71a (Drosophila melanogaster, UniProt Q9VUK5).
T3 sequence (Q9VUK5 1-378): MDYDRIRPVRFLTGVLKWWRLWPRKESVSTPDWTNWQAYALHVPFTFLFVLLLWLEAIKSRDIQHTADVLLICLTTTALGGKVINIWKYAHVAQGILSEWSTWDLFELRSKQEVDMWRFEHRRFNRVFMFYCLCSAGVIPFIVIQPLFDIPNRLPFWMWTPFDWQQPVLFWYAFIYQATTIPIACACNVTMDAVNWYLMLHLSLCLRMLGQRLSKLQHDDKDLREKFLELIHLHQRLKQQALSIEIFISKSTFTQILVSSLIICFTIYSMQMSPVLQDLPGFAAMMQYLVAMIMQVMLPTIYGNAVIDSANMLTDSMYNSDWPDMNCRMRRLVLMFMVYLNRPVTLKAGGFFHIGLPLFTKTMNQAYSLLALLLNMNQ
The experiment in a line: CNT-FET sensor covalently functionalized with Or71a nanodiscs (Example 3). The format is binding. Here is the method:
The dispersion was sonicated until a clear solution was obtained. The temperature was kept at 25° C. throughout the sonication process. The thiolpyridine solution was prepared by dissolving 10 mg of 2-Mercaptopyridine (99%, Sigma Aldrich) in 1 ml of methanol. The solution was spun coated on a polydimethylsiloxane (PDMS) surface at 2000 rpm for one minute. Before the spin coating process, the PDMS surface was cleaned by a 50 W Oxygen plasma for 1 minute to improve the wettability. The cleaned substrates were placed upside down on the PDMS surface for three minutes and washed in ethanol to remove the excess thiolpyridine molecules. Then the substrates were transferred into the CNT suspension and immersed into the suspension for 10 minutes. The samples were removed from the suspension and dipped into Ethanol for another 10 minutes to remove the thiolpyridine molecules in the SWNT network. The alignment markers were deposited by defining the markers by photolithography and thermal evaporation of 5 nm Chromium and 50 nm of Gold. The metal Lift off was done by acetone immersion for 15 minutes followed by an Isopropyl alcohol (IPA) wash and N2 blow dry. The result is a uniform thin film CNT network covering the entire substrate surface. The purification procedure is a variation on the one detailed in […] et al. 2013^14. […] Purity was assessed on Coomassie stained SDS-PAGE gels and Western blotting. […]

Experiment [25] concerns the target T3, OR71a. The experiment in a line: EIS sensor, Or71a liposomes on gold electrode, optimized conditions (Example 5). Conditions: EIS. It is filed as binding.
In experiment [26] the test system is BmOr45/Orco. Conditions: cited from earlier work.
The subject of experiment [27] is BmOr47/Orco. Conditions: cited from earlier work.
In experiment [28] the test system is AgOr48/Orco. Conditions: given as Log, cited from earlier work.
For experiment [29], the system named is BmOR3/Orco. Conditions: ref 13; cited from earlier work.
Experiment [30] relates to BmOR3/Orco. Conditions: cited from earlier work.
In experiment [31] the test system is DiOR1/Orco. Conditions: cited from earlier work.
Experiment [32] deals with ApolOR1/Orco. Conditions: +ApolPBP2; estimated visually from graph; cited from earlier work.
In experiment [33] the test system is SexiOR13/Orco. The following applies: ref 26; cited from earlier work.
Experiment [34] relates to ECB (Z) OR3/Orco. Conditions: ref 2; cited from earlier work.
The test system of experiment [35] is OnOr1/Orco. The following applies: ref 32; cited from earlier work.

Like-named read-outs stand apart in the source and are kept apart here. Marks after values point to notes of the source that are not given here.

DOr85b/Orco, sequence (Q9VHQ7 whole entry): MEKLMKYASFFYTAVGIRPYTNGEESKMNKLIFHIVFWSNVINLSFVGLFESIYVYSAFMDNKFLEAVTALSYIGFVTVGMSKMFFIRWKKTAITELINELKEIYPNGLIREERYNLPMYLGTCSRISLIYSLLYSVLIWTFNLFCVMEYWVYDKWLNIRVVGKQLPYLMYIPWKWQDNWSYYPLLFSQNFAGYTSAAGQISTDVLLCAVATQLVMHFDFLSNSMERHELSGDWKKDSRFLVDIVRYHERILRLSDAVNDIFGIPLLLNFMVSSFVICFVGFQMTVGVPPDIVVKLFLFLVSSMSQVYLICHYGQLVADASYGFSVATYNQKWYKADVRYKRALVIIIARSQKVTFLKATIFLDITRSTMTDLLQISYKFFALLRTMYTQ
DOr85b/Orco, sequence (Q9VNB5 whole entry partner): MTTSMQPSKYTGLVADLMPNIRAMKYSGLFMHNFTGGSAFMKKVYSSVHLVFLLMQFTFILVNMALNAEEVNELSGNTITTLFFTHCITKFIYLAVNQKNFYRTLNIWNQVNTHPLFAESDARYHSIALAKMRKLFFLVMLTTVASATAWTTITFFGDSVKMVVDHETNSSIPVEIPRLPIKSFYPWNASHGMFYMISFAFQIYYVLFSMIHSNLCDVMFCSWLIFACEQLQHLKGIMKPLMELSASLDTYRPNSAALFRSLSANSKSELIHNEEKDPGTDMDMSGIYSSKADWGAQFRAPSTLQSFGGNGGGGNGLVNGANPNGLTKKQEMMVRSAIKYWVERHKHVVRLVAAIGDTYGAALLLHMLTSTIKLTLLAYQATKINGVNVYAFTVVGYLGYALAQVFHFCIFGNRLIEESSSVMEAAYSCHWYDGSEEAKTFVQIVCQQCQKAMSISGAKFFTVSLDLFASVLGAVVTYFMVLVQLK
DmOr22a/Orco, sequence (P81909 whole entry): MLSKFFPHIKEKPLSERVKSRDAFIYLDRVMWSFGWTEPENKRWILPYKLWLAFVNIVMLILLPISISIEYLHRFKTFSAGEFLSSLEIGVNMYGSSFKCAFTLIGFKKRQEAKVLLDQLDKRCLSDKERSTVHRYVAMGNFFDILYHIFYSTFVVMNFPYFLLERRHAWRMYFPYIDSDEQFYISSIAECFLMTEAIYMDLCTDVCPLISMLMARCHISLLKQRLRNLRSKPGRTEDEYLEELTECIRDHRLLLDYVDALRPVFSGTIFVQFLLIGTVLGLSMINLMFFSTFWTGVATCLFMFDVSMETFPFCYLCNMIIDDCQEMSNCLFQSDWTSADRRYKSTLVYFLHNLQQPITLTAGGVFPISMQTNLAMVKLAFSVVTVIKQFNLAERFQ
T2 sequence (Q8WTE7 whole entry): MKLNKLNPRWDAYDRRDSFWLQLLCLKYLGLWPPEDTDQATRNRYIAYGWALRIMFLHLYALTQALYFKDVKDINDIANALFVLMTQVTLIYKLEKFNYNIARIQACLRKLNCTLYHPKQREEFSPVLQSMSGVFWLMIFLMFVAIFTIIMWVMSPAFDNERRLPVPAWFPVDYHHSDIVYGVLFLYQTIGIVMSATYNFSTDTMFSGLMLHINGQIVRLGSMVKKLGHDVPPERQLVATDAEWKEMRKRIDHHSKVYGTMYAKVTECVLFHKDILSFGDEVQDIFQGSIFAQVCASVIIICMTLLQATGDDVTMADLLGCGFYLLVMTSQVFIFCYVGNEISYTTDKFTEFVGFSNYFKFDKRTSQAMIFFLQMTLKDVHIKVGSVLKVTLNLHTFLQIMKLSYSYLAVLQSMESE
T2 sequence (Q7QCC7 whole entry partner): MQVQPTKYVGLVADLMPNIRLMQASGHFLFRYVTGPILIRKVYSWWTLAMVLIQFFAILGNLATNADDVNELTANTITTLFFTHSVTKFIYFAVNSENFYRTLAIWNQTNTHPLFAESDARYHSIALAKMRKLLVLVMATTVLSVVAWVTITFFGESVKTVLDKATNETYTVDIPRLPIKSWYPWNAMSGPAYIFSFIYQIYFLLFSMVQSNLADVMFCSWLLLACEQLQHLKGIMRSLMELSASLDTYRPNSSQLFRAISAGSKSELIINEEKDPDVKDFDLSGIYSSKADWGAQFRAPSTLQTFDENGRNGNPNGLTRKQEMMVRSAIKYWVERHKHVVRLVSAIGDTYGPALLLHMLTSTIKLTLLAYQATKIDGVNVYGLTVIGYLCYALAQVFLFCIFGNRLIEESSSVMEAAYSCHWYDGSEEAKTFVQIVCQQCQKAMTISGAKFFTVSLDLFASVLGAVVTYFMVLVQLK
T1 sequence (Q8WTE6 whole entry): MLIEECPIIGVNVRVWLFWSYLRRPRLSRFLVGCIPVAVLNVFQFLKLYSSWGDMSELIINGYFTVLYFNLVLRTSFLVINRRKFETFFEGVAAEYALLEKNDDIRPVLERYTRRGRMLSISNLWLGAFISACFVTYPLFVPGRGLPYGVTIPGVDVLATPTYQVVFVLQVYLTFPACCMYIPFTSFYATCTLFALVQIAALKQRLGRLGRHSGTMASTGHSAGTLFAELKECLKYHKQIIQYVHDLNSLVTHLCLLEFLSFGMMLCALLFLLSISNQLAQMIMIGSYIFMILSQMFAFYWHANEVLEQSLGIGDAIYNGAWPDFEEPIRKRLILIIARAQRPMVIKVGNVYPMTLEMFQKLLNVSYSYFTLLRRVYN
T1 sequence (Q7QCC7 whole entry partner): as the sequence (Q7QCC7 whole entry partner) above

With `CC(C)=CCC/C(C)=C/CO` [geraniol], the detection limit in experiment [1] is given as ~10^−6 M. The Sensitivity limit in [2] (estimated visually from graph) is reported as 10^−14 M*. In addition, the EC50 in experiment [2] (ref 17) is 0.0018 nM.

Turning to `CCC/C=C\C=C\CCCCCCCCCO` [Bombykol], the EC50 in experiment [3] (ref 29) is 34000 nM; in experiment [3] (ref 30) it was 5900 nM; in experiment [4] (ref 12), 250 nM; in experiment [5], 4390 nM. The results for the Sensitivity limit in experiment [4] (estimated visually from graph) and in [5] were 10^−8 − 10^−6 M* and 1000 nM, respectively.

In the case of `CCCC/C=C\CCCCCCCCCC=O` [Z11-16:Ald], the concentration giving a half-maximal response (EC50) in [6] is 979 nM; in experiment [7] (ref 12) it was 2520 nM. In addition, the Sensitivity limit in experiment [7] (estimated visually from graph) is listed as 10^−8 − 10^−6 M*.

Consider `CCCC(=O)OCC` [ethyl butyrate], for which the Sensitivity limit in experiment [8] (estimated visually from graph) is 10^−12 M*. Also, in experiment [8] (ref 3), the EC50 is 0.0158 nM.

In the case of `c1ccc2[nH]ccc2c1` [indole], the figures for the concentration for a half-maximal effect (EC50) in experiment [9] and in [10] were 137 nM and 16.7 nM, respectively.

As for `CCCC/C=C\CCCCCCCCCCOC(C)=O` [Z11-16:Ac], the Sensitivity limit in experiment [11] (estimated visually from graph) is on record as 10^−7 M*. Moreover, the EC50 in [11] (ref 28) is 1000 nM.

On to `C=CC(C)(O)CCC=C(C)C` (stereo not shown) [linalool], for which the Sensitivity limit in experiment [12] (estimated visually from graph) is reported as 10^−10 M*. Also, the EC50 in experiment [12] (ref 18) was 4.69 nM. Besides, the detection limit in experiment [1] was ~10^−6 M.

Take `CCCC/C=C\CCCCCCCC=O` [Z9-14:ald]: the EC50 in [13] was 979 nM.

For `Cc1ccc(O)cc1` [4-methylphenol], the EC50 in [14] was 412 nM.

Take `CCCC/C=C\CCCCCCCCO` [Z9-14:OH]: the EC50 in experiment [15] is 969 nM.

For `CC(C)=CCCC(C)=CC=O` [Citral], in [16], the Sensitivity limit is 10^−15 M*.

Turning to `CC(=O)OC/C=C(\C)CCC=C(C)C` [geranyl acetate], the EC50 in experiment [17] is 1000 nM.

For the compound `CCCCCC(C)=O` [2-heptanone], the Sensitivity limit in experiment [18] (estimated visually from graph) was 10^−8 − 10^−6 M*. Also, in [18] (ref 12), the concentration giving a half-maximal response (EC50) is 45600 nM. The “concentration that could be detected” value in experiment [19] was 0.018 M.

Turning to `CC/C=C/CCCCCCCCCCO` [E11-14:OH], the Sensitivity limit in experiment [20] (estimated visually from graph) is 10^−7 M*. The concentration for a half-maximal effect (EC50) in [20] (ref 27) is 1000 nM.

On to `C=CC(O)CCCCC` (stereo not shown) [1-octen-3-ol], for which the EC50 in experiment [21] was 186 nM.

For the compound `C=CCc1ccc(O)c(OC)c1` [eugenol], in [22], the “Ec50 (Log)” value is “Log = −6.54”. Moreover, the “Sensitivity limit (Log)” value in experiment [22] (ref 23, estimated visually from graph) is “Log = −7*”. In addition, in [23], the concentration for a half-maximal effect (EC50) is 34.4 nM.

For the compound `CCc1ccc(OC)c(O)c1` [4-ethyl guaiacol], the limit of detection entry in [24] (nanodiscs 1:100 dilution) is given as “below 1 fM”. In addition, in experiment [24] (real time current measurement mode), the “concentration at which clear electronic response starts” value was 1 fM. Moreover, the LOD in experiment [25] came to 0.1 fM.

Turning to `O=C(O)c1ccccc1` [benzoic acid], the Sensitivity limit in experiment [26] (estimated visually from graph) is given as 10^−11 M*; in experiment [27] (estimated visually from graph) it was 10^−14 M*. Further, the EC50 in experiment [26] (ref 18) is 0.144 nM; in experiment [27] (ref 18) it was 0.0142 nM.

`CCCCCCCCC1CCC(=O)O1` (stereo not shown) [g-dodecalactone]: the “Ec50 (Log)” value in [28] is on record as “Log = −7.01”. Also, the “Sensitivity limit (Log)” value in experiment [28] (ref 25, estimated visually from graph) is recorded as “Log = −8*”.

As for `CCC/C=C\C=C\CCCCCCCCC=O` [Bombykal], the EC50 in experiment [29] is 2030 nM; in experiment [30] (ref 12) it was 380 nM. Also, the figures for the Sensitivity limit in experiment [29] and in [30] (estimated visually from graph) were 300 nM and 10^−8 − 10^−6 M*, respectively.

As for `CCCC/C=C/CCCCCCCCCC=O` [EII-16:Ald], in experiment [31] (estimated visually from graph), the Sensitivity limit was 10^−7 M*. Moreover, the concentration for a half-maximal effect (EC50) in experiment [31] (ref 28) is 1000 nM.

On to `CCCC/C=C\CCC/C=C/CCCCC=O` [(E,Z) -6,11-hexadecadienal], for which the Sensitivity limit in experiment [32] is listed as 10^−15 M*.

Consider `C/C=C/C/C=C\CCCCCCCCOC(C)=O` [Z9, E12-14:OAc], for which the EC50 in [33] is 3160 nM.

As to `CC/C=C/CCCCCCCCCCOC(C)=O` [E11 pheromone], in experiment [34], the concentration giving a half-maximal response (EC50) is 12.5 nM and the Sensitivity limit was 10^−9 M^.

With `C/C=C/CCCCCCCCCCCOC(C)=O` [E12-14:OAc], the EC50 in experiment [35] is 260 nM.

Usually EC50 stands for the concentration needed to bring the measured effect to its halfway point.

The values are drawn from patent US12044651B2, “Sensor device and methods” (SCENTIAN BIO LIMITED, priority 2016, dated 2024).
